Paper PMC3961306, “Comparison of the Cancer Gene Targeting and Biochemical Selectivities of All Targeted Kinase Inhibitors Approved for Clinical Use” (PLoS ONE, 2014)
Read-outs that look alike come from different tables or passages of the source.

How the values were obtained:
[1] = test system: mutant versus wild-type cell lines of the 44 cell line panel; test: Anova analysis of cell panel IC50s against cancer gene changes; standardized mean difference (targetedness)
[2] = test system: forty-four human cancer cell lines; test: Cell proliferation assay (ATPlite, 72 hours) in the 44 cell line Oncolines panel; type: cell-based; conditions: for IC50: Homo sapiens
[3] = 769-P, cell line 769-P, read-out: cell panel IC50, 769-P
[4] = 786-0, cell line 786-0, read-out: cell panel IC50, 786-0
[5] = A 172, read-out: cell panel IC50, A-172, cell line A-172
[6] = A204, cell line A-204, read-out: cell panel IC50, A-204
[7] = A498, read-out: cell panel IC50, A-498, cell line A-498
[8] = A549, read-out: cell panel IC50, A-549, cell line A-549
[9] = A-375, cell line A375, read-out: cell panel IC50, A375
[10] = A-427, read-out: cell panel IC50, A-427, cell line A-427
[11] = ACHN, cell line ACHN, read-out: cell panel IC50, ACHN
[12] = AN3-CA, cell line AN3 CA, read-out: cell panel IC50, AN3 CA
[13] = AU565, read-out: cell panel IC50, AU-565, cell line AU-565
[14] = BT-20, cell line BT-20, read-out: cell panel IC50, BT-20
[15] = BT-549, read-out: cell panel IC50, BT-549, cell line BT-549
[16] = BXPC-3, cell line BxPC-3, read-out: cell panel IC50, BxPC-3
[17] = C-33-A, cell line C-33 A, read-out: cell panel IC50, C-33 A
[18] = CAL-27, cell line CAL 27, read-out: cell panel IC50, CAL 27
[19] = CCRF-CEM, cell line CCRF-CEM, read-out: cell panel IC50, CCRF-CEM
[20] = DLD-1, cell line DLD-1, read-out: cell panel IC50, DLD-1
[21] = FaDu, cell line FaDu, read-out: cell panel IC50, FaDu
[22] = HCT-15, cell line HCT-15, read-out: cell panel IC50, HCT-15
[23] = HCT-116, read-out: cell panel IC50, HCT-116, cell line HCT-116
[24] = Hs-578T, cell line Hs 578T, read-out: cell panel IC50, Hs 578T
[25] = Jurkat E6.1, cell line Jurkat E6.1, read-out: cell panel IC50, Jurkat E6.1
[26] = K562, read-out: cell panel IC50, K-562, cell line K-562
[27] = LS174T, read-out: cell panel IC50, LS 174T, cell line LS 174T
[28] = LoVo, cell line LoVo, read-out: cell panel IC50, LoVo
[29] = MG-63, cell line MG-63, read-out: cell panel IC50, MG-63
[30] = MOLT-4, cell line MOLT-4, read-out: cell panel IC50, MOLT-4
[31] = MeWo, cell line MeWo, read-out: cell panel IC50, MeWo
[32] = NCI-H82, cell line NCI-H82, read-out: cell panel IC50, NCI-H82
[33] = NCI-H460, cell line NCI-H460, read-out: cell panel IC50, NCI-H460
[34] = OVCAR-3, cell line OVCAR-3, read-out: cell panel IC50, OVCAR-3
[35] = RPMI-7951, cell line RPMI-7951, read-out: cell panel IC50, RPMI-7951
[36] = SHP77, cell line SHP-77, read-out: cell panel IC50, SHP-77
[37] = SK-N-AS, cell line SK-N-AS, read-out: cell panel IC50, SK-N-AS
[38] = SW48, cell line SW48, read-out: cell panel IC50, SW48
[39] = SW480, cell line SW480, read-out: cell panel IC50, SW480
[40] = SW-620, cell line SW620, read-out: cell panel IC50, SW620
[41] = U2OS, cell line U-2 OS, read-out: cell panel IC50, U-2 OS
[42] = U-87 MG, 72 h, U-87 MG cell line, ATPlite, 72 hours, read-out: IC50 in cell proliferation assay (table S5 cellpanel data)
[43] = cell line J82, read-out: cell panel IC50, J82
[44] = cell line PA-1, read-out: cell panel IC50, PA-1
[45] = cell line SJCRH30, read-out: cell panel IC50, SJCRH30
[46] = cell line SR, read-out: cell panel IC50, SR

## Cc1ccc(NC(=O)c2ccc(CN3CCN(C)CC3)cc2)cc1Nc1nccc(-c2cccnc2)n1 [imatinib]
[1]; ABL1 oncogene targeting, Figure 5D
  targetedness (standardized logIC50 difference): -9.84

## CNC(=O)c1cc(Oc2ccc(NC(=O)Nc3ccc(Cl)c(C(F)(F)F)c3)cc2)ccn1 [sorafenib]
[2]; 4-4 cell, read-out: cell panel IC50, J82
  IC50: 26500 nM
[2]; 4-4 cell, read-out: cell panel IC50, PA-1
  IC50: 11700 nM
[2]; 4-4 cell, read-out: cell panel IC50, SJCRH30
  IC50: 12100 nM
[2]; 4-4 cell, read-out: cell panel IC50, SR
  IC50: 11800 nM
[2]; 769-P, read-out: cell panel IC50, 769-P
  IC50: 12700 nM
[2]; 786-0, read-out: cell panel IC50, 786-0
  IC50: 11700 nM
[2]; A 172, read-out: cell panel IC50, A-172
  IC50: 22600 nM
[2]; A204, read-out: cell panel IC50, A-204
  IC50: 1620 nM
[2]; A498, read-out: cell panel IC50, A-498
  IC50: 18700 nM
[2]; A549, read-out: cell panel IC50, A-549
  IC50: 21200 nM
[2]; A-375, read-out: cell panel IC50, A375
  IC50: 28700 nM
[2]; A-427, read-out: cell panel IC50, A-427
  IC50: 7780 nM
[2]; ACHN, read-out: cell panel IC50, ACHN
  IC50: 17500 nM
[2]; AN3-CA, read-out: cell panel IC50, AN3 CA
  IC50: 9970 nM
[2]; AU565, read-out: cell panel IC50, AU-565
  IC50: 10400 nM
[2]; BT-20, read-out: cell panel IC50, BT-20
  IC50: 25000 nM
[2]; BT-549, read-out: cell panel IC50, BT-549
  IC50: 18200 nM
[2]; BXPC-3, read-out: cell panel IC50, BxPC-3
  IC50: 11100 nM
[2]; C-33-A, read-out: cell panel IC50, C-33 A
  IC50: 15900 nM
[2]; CAL-27, read-out: cell panel IC50, CAL 27
  IC50: 14000 nM
[2]; CCRF-CEM, read-out: cell panel IC50, CCRF-CEM
  IC50: 13000 nM
[2]; DLD-1, read-out: cell panel IC50, DLD-1
  IC50: 10500 nM
[2]; FaDu, read-out: cell panel IC50, FaDu
  IC50: 16200 nM
[2]; HCT-15, read-out: cell panel IC50, HCT-15
  IC50: 9900 nM
[2]; HCT-116, read-out: cell panel IC50, HCT-116
  IC50: 11900 nM
[2]; Hs-578T, read-out: cell panel IC50, Hs 578T
  IC50: 21600 nM
[2]; Jurkat E6.1, read-out: cell panel IC50, Jurkat E6.1
  IC50: 7940 nM
[2]; K562, read-out: cell panel IC50, K-562
  IC50: 9460 nM
[2]; LS174T, read-out: cell panel IC50, LS 174T
  IC50: 11700 nM
[2]; LoVo, read-out: cell panel IC50, LoVo
  IC50: 11300 nM
[2]; MG-63, read-out: cell panel IC50, MG-63
  IC50: 27400 nM
[2]; MOLT-4, read-out: cell panel IC50, MOLT-4
  IC50: 10500 nM
[2]; MeWo, read-out: cell panel IC50, MeWo
  IC50: 20900 nM
[2]; NCI-H82, read-out: cell panel IC50, NCI-H82
  IC50: 11300 nM
[2]; NCI-H460, read-out: cell panel IC50, NCI-H460
  IC50: 14100 nM
[2]; OVCAR-3, read-out: cell panel IC50, OVCAR-3
  IC50: > 31600 nM
[2]; RPMI-7951, read-out: cell panel IC50, RPMI-7951
  IC50: 20400 nM
[2]; SHP77, read-out: cell panel IC50, SHP-77
  IC50: 13600 nM
[2]; SK-N-AS, read-out: cell panel IC50, SK-N-AS
  IC50: 28900 nM
[2]; SW48, read-out: cell panel IC50, SW48
  IC50: 8300 nM
[2]; SW480, read-out: cell panel IC50, SW480
  IC50: 5330 nM
[2]; SW-620, read-out: cell panel IC50, SW620
  IC50: 5950 nM
[2]; U2OS, read-out: cell panel IC50, U-2 OS
  IC50: 15800 nM
[2]; U-87 MG, 72 h, read-out: IC50 in cell proliferation assay (table S5 cellpanel data)
  IC50: 28300 nM

## CC(C)C[C@H](NC(=O)[C@H](Cc1ccccc1)NC(=O)c1cnccn1)B(O)O [bortezomib]
[2]; 44 cell line panel, Figure 2D
  Difference between the average IC50 in the cell panel and the most potent IC50: 10 fold
[2]; [3]
  IC50: 18 nM
[2]; [4]
  IC50: 15 nM
[2]; [5]
  IC50: 4.63 nM
[2]; [6]
  IC50: 2090 nM
[2]; [7]
  IC50: 6 nM
[2]; [8]
  IC50: 9 nM
[2]; [9]
  IC50: 13 nM
[2]; [10]
  IC50: 11 nM
[2]; [11]
  IC50: 10 nM
[2]; [12]
  IC50: 13 nM
[2]; [13]
  IC50: 18 nM
[2]; [14]
  IC50: 64 nM
[2]; [15]
  IC50: 245 nM
[2]; [16]
  IC50: 28 nM
[2]; [17]
  IC50: 14 nM
[2]; [18]
  IC50: 6 nM
[2]; [19]
  IC50: 10 nM
[2]; [20]
  IC50: 19 nM
[2]; [21]
  IC50: 21 nM
[2]; [22]
  IC50: 31 nM
[2]; [23]
  IC50: 221 nM
[2]; [24]
  IC50: 5.28 nM
[2]; [25]
  IC50: 18 nM
[2]; [26]
  IC50: 16 nM
[2]; [27]
  IC50: 10 nM
[2]; [28]
  IC50: 6 nM
[2]; [29]
  IC50: 5.68 nM
[2]; [30]
  IC50: 8 nM
[2]; [31]
  IC50: 11 nM
[2]; [32]
  IC50: 28 nM
[2]; [33]
  IC50: 85 nM
[2]; [34]
  IC50: 79 nM
[2]; [35]
  IC50: 7 nM
[2]; [36]
  IC50: 66 nM
[2]; [37]
  IC50: 6 nM
[2]; [38]
  IC50: 10 nM
[2]; [39]
  IC50: < 3.16 nM
[2]; [40]
  IC50: 4 nM
[2]; [41]
  IC50: 53 nM
[2]; [42]
  IC50: 10 nM
[2]; [43]
  IC50: 11 nM
[2]; [44]
  IC50: 4.74 nM
[2]; [45]
  IC50: 27 nM
[2]; [46]
  IC50: 12 nM

## CC[C@]1(O)C[C@H]2CN(CCc3c([nH]c4ccccc34)[C@@](C(=O)OC)(c3cc4c(cc3OC)N(C=O)[C@H]3[C@@](O)(C(=O)OC)[C@H](OC(C)=O)[C@]5(CC)C=CCN6CC[C@]43[C@@H]65)C2)C1 [vincristine]
[2]; [3]
  IC50: 13 nM
[2]; [4]
  IC50: 42 nM
[2]; [5]
  IC50: 5.3 nM
[2]; [6]
  IC50: 13 nM
[2]; [7]
  IC50: 20 nM
[2]; [8]
  IC50: 24 nM
[2]; [9]
  IC50: 5.46 nM
[2]; [10]
  IC50: 2.27 nM
[2]; [11]
  IC50: 54 nM
[2]; [12]
  IC50: 1.29 nM
[2]; [13]
  IC50: 3.21 nM
[2]; [14]
  IC50: 6 nM
[2]; [15]
  IC50: 2.73 nM
[2]; [16]
  IC50: 9 nM
[2]; [17]
  IC50: 4 nM
[2]; [18]
  IC50: 2.78 nM
[2]; [19]
  IC50: 3.26 nM
[2]; [20]
  IC50: 61 nM
[2]; [21]
  IC50: 8 nM
[2]; [22]
  IC50: 66 nM
[2]; [23]
  IC50: 5 nM
[2]; [24]
  IC50: 2.48 nM
[2]; [25]
  IC50: 2.85 nM
[2]; [26]
  IC50: 3.19 nM
[2]; [27]
  IC50: 5 nM
[2]; [28]
  IC50: 10 nM
[2]; [29]
  IC50: 3.53 nM
[2]; [30]
  IC50: 1.54 nM
[2]; [31]
  IC50: 8.43 nM
[2]; [32]
  IC50: 4.29 nM
[2]; [33]
  IC50: 35 nM
[2]; [34]
  IC50: 3.58 nM
[2]; [35]
  IC50: 2.24 nM
[2]; [36]
  IC50: 183 nM
[2]; [37]
  IC50: 2.3 nM
[2]; [38]
  IC50: 4.22 nM
[2]; [39]
  IC50: 7 nM
[2]; [40]
  IC50: 4.73 nM
[2]; [41]
  IC50: 22 nM
[2]; [42]
  IC50: 4.4 nM
[2]; [43]
  IC50: 28 nM
[2]; [44]
  IC50: 1.67 nM
[2]; [45]
  IC50: < 1 nM
[2]; [46]
  IC50: < 1 nM

## Cn1cnc2c(F)c(Nc3ccc(Br)cc3Cl)c(C(=O)NOCCO)cc21 [selumetinib]
[1]; CTNNB1 mutant versus wild-type, average
  Potency shift in cell lines expressing mutant β-catenin (CTNNB1) versus wild-type: more than tenfold
